In the assay the target is T1, ligand binding domain of human ROR gamma (Homo sapiens, UniProt P51449).
T1 construct: NM_001001523; expressed in transfected cells; host or cells: HEK293T
T1 sequence (P51449 247-497 isoform P51449-2): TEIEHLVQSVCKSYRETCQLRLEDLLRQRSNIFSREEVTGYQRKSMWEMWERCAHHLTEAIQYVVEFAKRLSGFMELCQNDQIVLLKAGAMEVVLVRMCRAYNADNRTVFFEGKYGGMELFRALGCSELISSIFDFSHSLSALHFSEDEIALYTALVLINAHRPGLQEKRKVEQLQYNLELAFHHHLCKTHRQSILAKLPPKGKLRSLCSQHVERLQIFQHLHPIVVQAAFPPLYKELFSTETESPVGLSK
Description: ROR gamma reporter gene assay (GAL4-RORγ LBD luciferase, Dual-Glo). The following applies: HEK293T cells transfected with pM-ROR gamma, 8 concentrations 3.5 nM to 10.5 μM, 24 h incubation; read-out: result (pIC50, inhibition of RORγ transcriptional activity) (converted). The class given is cell-based. In short, it runs like this:
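HEK293T cells were co-transfected with GAL4 DBD fused to human RORγ LBD (aa 247-497), a 5×UAS firefly luciferase reporter and CMV-driven renilla luciferase, in medium with 10% charcoal-stripped FBS.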
A general note: In a reporter assay the amount or activity of a reporter protein is the signal.
For the compound `NC(=O)c1cc(Cl)c(C(=O)CN(Cc2cc(F)cc(F)c2)C(=O)c2cnn([C@H]3CC[C@H](C(=O)O)CC3)c2C(F)(F)F)c(Cl)c1` [Example 97, trans-4-(4-((2-(4-carbamoyl-2,6-dichlorophenyl)-2-oxoethyl)-((3,5 difluorophenyl)methyl)carbamoyl)-5-(trifluoromethyl)pyrazol-1-yl)cyclohexane-1-carboxylic acid], the IC50 was 282000 pM. Consider `O=C(O)c1cc(Cl)c(C(=O)CN(Cc2cc(F)cc(F)c2)C(=O)c2cnn([C@H]3CC[C@H](C(=O)O)CC3)c2C(F)(F)F)c(Cl)c1` [Example 98, trans-4-(2-((1-(4-carboxycyclohexyl)-5-(trifluoromethyl)pyrazole-4-carbonyl)-((3,5-difluorophenyl)methyl)amino)acetyl)-3,5-dichlorobenzoic acid], for which the IC50 is over 1e+07 pM. The figure for `O=C(CN(Cc1cc(F)cc(F)c1)C(=O)c1cnn([C@H]2CC[C@H](C(=O)O)CC2)c1C(F)(F)F)c1ccccc1Cl` [Example 99, trans-4-(4-((2-(2-chlorophenyl)-2-oxoethyl)-((3,5-difluorophenyl)methyl)carbamoyl)-5-(trifluoromethyl)pyrazol-1-yl)cyclohexane-1-carboxylic acid] is 105000 pM; for `CC(CN(Cc1ccc(F)cc1)C(=O)c1cnn([C@H]2CC[C@H](C(=O)O)CC2)c1C(F)(F)F)c1c(Cl)cccc1Cl` (stereo partly drawn) [Example 100, trans-4-(4-(2-(2,6-dichlorophenyl)propyl-((4-fluorophenyl)methyl)carbamoyl)-5-(trifluoromethyl)pyrazol-1-yl)cyclohexane-1-carboxylic acid] it is 234000 pM; for `O=C(CN(CC1CCC(F)(F)CC1)C(=O)c1cnn([C@H]2CC[C@H](C(=O)O)CC2)c1C(F)(F)F)c1c(Cl)cncc1Cl` [Example 101, trans-4-(4-((2-(3,5-dichloropyridin-4-yl)-2-oxoethyl)-((4,4-difluorocylohexyl)methyl)carbamoyl)-5-(trifluoromethyl)pyrazol-1-yl)cyclohexane-1-carboxylic acid] it is 87100 pM.

Regarding `CC1(CN(CC(=O)c2c(Cl)cncc2Cl)C(=O)c2cnn([C@H]3CC[C@H](C(=O)O)CC3)c2C(F)(F)F)CCCCC1` [Example 102, trans-4-(4-((2-(3,5-dichloropyridin-4-yl)-2-oxoethyl)-((1-methylcyclohexyl)methyl)carbamoyl)-5-(trifluoromethyl)pyrazol-1-yl)cyclohexane-1-carboxylic acid], the IC50 is 74100 pM.

In the case of `O=C(CN(Cc1ccccn1)C(=O)c1cnn([C@H]2CC[C@H](C(=O)O)CC2)c1C(F)(F)F)c1c(Cl)cncc1Cl` [Example 103, trans-4-(4-((2-(3,5-dichloropyridin-4-yl)-2-oxoethyl)-(pyridin-2-ylmethyl)carbamoyl)-5-(trifluorornethyl)pyrazol-1-yl)cyclohexane-1-carboxylic acid], the IC50 is 1.91e+06 pM. Regarding `O=C(CN(Cc1cccnc1)C(=O)c1cnn([C@H]2CC[C@H](C(=O)O)CC2)c1C(F)(F)F)c1c(Cl)cncc1Cl` [Example 104, trans-4-(4-((2-(3,5-dichloropyridin-4-yl)-2-oxoethyl)-(pyridin-3-ylmethyl)carbamoyl)-5-(trifluorornethyl)pyrazol-1-yl)cyclohexane-1-carboxylic acid], the IC50 is 2.04e+06 pM.

For the compound `O=C(CN(Cc1ccc(F)cc1)C(=O)c1cnn([C@H]2CC[C@](O)(C(=O)O)CC2)c1C(F)(F)F)c1c(Cl)cncc1Cl` [Example 105, cis-4-(4-((2-(3,5-dichloropyridin-4-yl)-2-oxoethyl)-((4-fluorophenyl)methyl)carbamoyl)-5-(trifluoromethyl)pyrazol-1-yl)-1-hydroxycyclohexane-1-carboxylic acid], the IC50 is 204000 pM. In the case of `O=C(CN(Cc1ccc(F)cc1)C(=O)c1cnn([C@H]2CC[C@@](O)(C(=O)O)CC2)c1C(F)(F)F)c1c(Cl)cncc1Cl` [Example 106, trans-4-(4-((2-(3,5-dichloropyridin-4-yl)-2-oxoethyl)-((4-fluorophenyl)methyl)carbamoyl)-5-(trifluoromethyl)pyrazol-1-yl)-1-hydroxycyclohexane-1-carboxylic acid], the IC50 was 380000 pM. To `O=C(CN(Cc1cc(F)cc(F)c1)C(=O)c1cnn([C@H]2CC[C@H](C(=O)O)CC2)c1C(F)(F)F)c1cc(Cl)ccc1Cl` [Example 107, trans-4-(4-((2-(2,5-dichlorophenyl)-2-oxoethyl)-((3,5-difluorophenyl)methyl)carbamoyl)-5-(trifluoromethyl)pyrazol-1-yl)cyclohexane-1-carboxylic acid] belongs 2.82e+06 pM. The figure for `CC(CN(Cc1cc(F)cc(F)c1)C(=O)c1cnn([C@H]2CC[C@H](C(=O)O)CC2)c1C(F)(F)F)c1c(Cl)cccc1Cl` (stereo partly drawn) [Example 108, trans-4-(4-(2-(2,6-dichlorophenyl)propyl-((3,5-difluorophenyl)methyl)carbamoyl)-5-(trifluoromethyl)pyrazol-1-yl)cyclohexane-1-carboxylic acid] is 324000 pM; for `COC(CN(Cc1cc(F)cc(F)c1)C(=O)c1cnn([C@H]2CC[C@H](C(=O)O)CC2)c1C(F)(F)F)c1c(Cl)cncc1Cl` (stereo partly drawn) [Example 109, trans-4-(4-((2-(3,5-dichloropyridin-4-yl)-2-methoxyethyl)-((3,5-difluorophenyl)methyl)carbamoyl)-5-(trifluoromethyl)pyrazol-1-yl)cyclohexane-1-carboxylic acid] it is 631000 pM; for `CC(C)(C)C#CCN(CC(=O)c1c(Cl)cncc1Cl)C(=O)c1cnn([C@H]2CC[C@H](C(=O)O)CC2)c1C(F)(F)F` [Example 110, trans-4-(4-((2-(3,5-dichloropyridin-4-yl)-2-oxoethyl)-(4,4-dimethylpent-2-ynyl)carbamoyl)-5-(trifluoromethyl)pyrazol-1-yl)cyclohexane-1-carboxylic acid] it is 162000 pM. With `COc1cccc(OC)c1C(=O)CN(Cc1cc(F)cc(F)c1)C(=O)c1cnn([C@H]2CC[C@H](C(=O)O)CC2)c1C(F)(F)F` [Example 111, trans-4-(4-((3,5-difluorophenyl)methyl-(2-(2,6-dimethoxyphenyl)-2-oxoethyl)carbamoyl)-5-(trifluoromethyl)pyrazol-1-yl)cyclohexane-1-carboxylic acid], the IC50 is 355000 pM. On to `COc1cc(Cl)cc(Cl)c1C(=O)CN(Cc1cc(F)cc(F)c1)C(=O)c1cnn([C@H]2CC[C@H](C(=O)O)CC2)c1C(F)(F)F` [Example 112, trans-4-(4-((2-(2,4-dichloro-6-methoxyphenyl)-2-oxoethyl)-((3,5-difluorophenyl)methyl)carbamoyl)-5-(trifluoromethyl)pyrazol-1-yl)cyclohexane-1-carboxylic acid], for which the IC50 is 61700 pM. The figure for `O=C(CN(Cc1cc(F)cc(F)c1)C(=O)c1cnn([C@H]2CC[C@H](C(=O)O)CC2)c1C(F)(F)F)C1CCCC1` [Example 113, trans-4-(4-((2-cyclopentyl-2-oxoethyl)-((3,5-difluorophenyl)methyl)carbamoyl)-5-(trifluoromethyl)pyrazol-1-yl)cyclohexane-1-carboxylic acid] is 4.57e+06 pM.

The record behind these values is patent publication US9365522B2, “Pyrazole amide derivative” (AMGEN INC., priority 2015, dated 2016).
